Earlier results, collected in patent US20080031860A1 (N.V. NUTRICIA, priority 2003, published 2008).

Tests used:
[1] = after 4 weeks of therapy
[2] = intake of 10-20 mg per day

Row | Compound | appetite [1] | reported adverse effect [2]
1 | CCCCCc1cc(O)c2c(c1)OC(C)(C)[C@@H]1CCC(C)=C[C@@H]21 [dronabinol] | significantly stimulates appetite | –
2 | calcium D-pantothenate | – | diarrhea
